Data published in patent US20130165641A1, “6,11-BRIDGED BIARYL MACROLIDES” (Enanta Pharmaceuticals, Inc., priority 2007, published 2013).
In brackets after ≈: the same amount, converted by molar mass.

Test system: H. influenzae
Experiment: MIC by micro-dilution method, H. influenzae isolates
Format: cell-based, Haemophilus influenzae
Experimental: Susceptibility tests can be used to quantitatively measure the in vitro activity of an antimicrobial agent against a given bacterial isolate. Compounds are tested for in vitro antibacterial activity by a micro-dilution method. Minimal Inhibitory Concentration (MIC) is determined in 96 well microtiter plates utilizing the appropriate broth medium for the observed bacterial isolates. […] The diluted compounds (2 μl/well) are then transferred into sterile, uninoculated medium (0.2 mL) by use of a 96 fixed tip-pipetting station. The inoculum for each bacterial strain is standardized to approximately 5×10^5 CFU/mL by optical comparison to a 0.5 McFarland turbidity standard. The plates are inoculated with 10 μl/well of adjusted bacterial inoculum. The 96 well plates are covered and incubated at 35+/−2° C. for 24 hours in ambient air environment. Following incubation, plate wells are visually examined by Optical Density measurement for the presence of growth (turbidity). The lowest concentration of an antimicrobial agent at which no visible growth occurs is defined as the MIC.
All in vitro testing follows the guidelines described in the Approved Standards M7-A7 protocol, published by the Clinical Laboratory Standards Institute (CLSI).

CCC1OC(=O)C(C)C(=O)C(C)C(OC2OC(C)CC(N(C)C)C2O)C2(C)CC(C)C(=O)C(C)C(OCC(=NOCc3ncc(-c4cccc(N)n4)s3)CO2)C1(C)O (stereo not shown) [Example 36]
MIC (H. influenzae 33929): 2 µg/mL (≈ 2.4 µM)
MIC (H. influenzae 49247): 2 µg/mL (≈ 2.4 µM)

CCC1OC(=O)C(C)C(=O)C(C)C(OC2OC(C)CC(N(C)C)C2O)C2(C)CC(C)C(=O)C(C)C(OCC(=NOCc3ccc(-c4nc(N)no4)nc3)CO2)C1(C)O (stereo not shown) [Example 51]
MIC (H. influenzae 33929): 2 µg/mL (≈ 2.45 µM)
MIC (H. influenzae 49247): 2 µg/mL (≈ 2.45 µM)

CCC1OC(=O)C(C)C(=O)C(C)C(OC2OC(C)CC(N(C)C)C2O)C2(C)CC(C)C(=O)C(C)C(OCC(=NOCc3nc(-c4cccc(N)n4)no3)CO2)C1(C)O (stereo not shown) [Example 53]
MIC (H. influenzae 33929): 1 µg/mL (≈ 1.22 µM)
MIC (H. influenzae 49247): 1 µg/mL (≈ 1.22 µM)

CCC1OC(=O)C(C)C(=O)C(C)C(OC2OC(C)CC(N(C)C)C2O)C2(C)CC(C)C(=O)C(C)C(OCC(=NOCc3ccc(-c4nc(N)ns4)nc3)CO2)C1(C)O (stereo not shown) [Example 61]
MIC (H. influenzae 33929): 2 µg/mL (≈ 2.4 µM)
MIC (H. influenzae 49247): 2 µg/mL (≈ 2.4 µM)

CCC1OC(=O)C(C)C(=O)C(C)C(OC2OC(C)CC(N(C)C)C2O)C2(C)CC(C)C(=O)C(C)C(OCC(=NOCc3ccc(-c4noc(N)n4)nc3)CO2)C1(C)O (stereo not shown) [Example 62]
MIC (H. influenzae 33929): 2 µg/mL (≈ 2.45 µM)
MIC (H. influenzae 49247): 2 µg/mL (≈ 2.45 µM)

CCC1OC(=O)C(C)(F)C(=O)C(C)C(OC2OC(C)CC(N(C)C)C2O)C2(C)CC(C)C(=O)C(C)C(OCC(=NOCc3nc(-c4cccc(N)n4)no3)CO2)C1(C)O (stereo not shown) [Example 52]
MIC (H. influenzae 33929): 1 µg/mL (≈ 1.2 µM)
MIC (H. influenzae 49247): 2 µg/mL (≈ 2.4 µM)

CCC(=O)N=C1C(C)CC2(C)OCC(=NOCc3cnc(-c4cccc(N)n4)o3)COC(C1C)C(C)(O)C(CC)OC(=O)C(C)(F)C(=O)C(C)C2OC1OC(C)CC(N(C)C)C1O (stereo not shown) [Example 65]
MIC (H. influenzae 33929): 4 µg/mL (≈ 4.5 µM)
MIC (H. influenzae 49247): 1 µg/mL (≈ 1.12 µM)

CCC1OC(=O)C(C)C(=O)C(C)C(OC2OC(C)CC(N(C)C)C2O)C2(C)CC(C)C(=NC(C)=O)C(C)C(OCC(=NOCc3ccc(-c4nsc(N)n4)cc3)CO2)C1(C)O (stereo not shown) [Example 48]
MIC (H. influenzae 33929): 2 µg/mL (≈ 2.29 µM)

CCC1OC(=O)C(C)C(=O)C(C)C(OC2OC(C)CC(N(C)C)C2O)C2(C)CC(C)C(=O)C(C)C(OCC(=NOCc3noc(-c4cccc(N)n4)n3)CO2)C1(C)O (stereo not shown) [Example 54]
MIC (H. influenzae 33929): 1 µg/mL (≈ 1.22 µM)
MIC (H. influenzae 49247): 1 µg/mL (≈ 1.22 µM)

CCC1OC(=O)C(C)C(=O)C(C)C(OC2OC(C)CC(N(C)C)C2O)C2(C)CC(C)C(=O)C(C)C(OCC(=NOCc3ccc(-c4nc(N)no4)cn3)CO2)C1(C)O (stereo not shown) [Example 45]
MIC (H. influenzae 33929): 2 µg/mL (≈ 2.45 µM)
MIC (H. influenzae 49247): 1 µg/mL (≈ 1.22 µM)

CCC(=O)N=C1C(C)CC2(C)OCC(=NOCc3ccn(-c4cccc(N)n4)n3)COC(C1C)C(C)(O)C(CC)OC(=O)C(C)(F)C(=O)C(C)C2OC1OC(C)CC(N(C)C)C1O (stereo not shown) [Example 57]
MIC (H. influenzae 33929): 4 µg/mL (≈ 4.5 µM)
MIC (H. influenzae 49247): 2 µg/mL (≈ 2.25 µM)

CCC1OC(=O)C(C)C(=O)C(C)C(OC2OC(C)CC(N(C)C)C2O)C2(C)CC(C)C(=O)C(C)C(OCC(=NOCc3ncc(-c4cccc(N)n4)cn3)CO2)C1(C)O (stereo not shown) [Example 50]
MIC (H. influenzae 33929): 2 µg/mL (≈ 2.42 µM)
MIC (H. influenzae 49247): 2 µg/mL (≈ 2.42 µM)

CCC1OC(=O)C(C)C(=O)C(C)C(OC2OC(C)CC(N(C)C)C2O)C2(C)CC(C)C(=O)C(C)C(OCC(=NOCc3ccc(-c4coc(N)n4)cn3)CO2)C1(C)O (stereo not shown) [Example 55]
MIC (H. influenzae 33929): 2 µg/mL (≈ 2.45 µM)
MIC (H. influenzae 49247): 1 µg/mL (≈ 1.23 µM)

CCC1OC(=O)C(C)C(=O)C(C)C(OC2OC(C)CC(N(C)C)C2O)C2(C)CC(C)C(=O)C(C)C(OCC(=NOCc3ccc(-n4nnnc4N)cc3)CO2)C1(C)O (stereo not shown) [Example 46]
MIC (H. influenzae 33929): 2 µg/mL (≈ 2.45 µM)
MIC (H. influenzae 49247): 2 µg/mL (≈ 2.45 µM)

CCC1OC(=O)C(C)C(=O)C(C)C(OC2OC(C)CC(N(C)C)C2O)C2(C)CC(C)C(=NC(C)=O)C(C)C(OCC(=NOCc3ccc(-n4nnnc4N)cc3)CO2)C1(C)O (stereo not shown) [Example 47]
MIC (H. influenzae 33929): 2 µg/mL (≈ 2.33 µM)

CCC1OC(=O)C(C)(F)C(=O)C(C)C(OC2OC(C)CC(N(C)C)C2O)C2(C)CC(C)C(=O)C(C)C(OCC(=NOCc3ccc(-c4nc(N)ns4)cc3)CO2)C1(C)O (stereo not shown) [Example 56]
MIC (H. influenzae 33929): 2 µg/mL (≈ 2.35 µM)
MIC (H. influenzae 49247): 2 µg/mL (≈ 2.35 µM)

CCC1OC(=O)C(C)C(=O)C(C)C(OC2OC(C)CC(N(C)C)C2O)C2(C)CC(C)C(=O)C(C)C(OCC(=NOCc3coc(-c4cccc(N)n4)n3)CO2)C1(C)O (stereo not shown) [Example 39]
MIC (H. influenzae 33929): 1 µg/mL (≈ 1.23 µM)
MIC (H. influenzae 49247): 1 µg/mL (≈ 1.23 µM)

CCC1OC(=O)C(C)C(=O)C(C)C(OC2OC(C)CC(N(C)C)C2O)C2(C)CC(C)C(=O)C(C)C(OCC(=NOCc3ccc(-c4coc(N)n4)nc3)CO2)C1(C)O (stereo not shown) [Example 60]
MIC (H. influenzae 33929): 2 µg/mL (≈ 2.45 µM)
MIC (H. influenzae 49247): 2 µg/mL (≈ 2.45 µM)
